Measured values: US7915264B2, “Fused pyridine derivatives for use as vanilloid receptor antagonists for treating pain” (Novartis AG, priority 2001, dated 2011)
pIC50: −log10 of the molar value.

Assays:
[1] = test system: rat model of neuropathic pain; assay: Anti-hyperalgesic effects in a model of neuropathic pain in the rat (partial sciatic nerve ligation, paw pressure); format: in vivo; settings: single dose 0.3-30 mg/kg p.o. after establishment of hyperalgesia
Experimental: Test: Anti-Hyperalgesic Effects in a Model of Neuropathic Pain in the Rat
The agents of invention are potent and efficacious anti-hyperalgesic agents following oral administration in the following rat model of neuropathic pain. Peripheral neuropathy is induced by partial ligation of the left sciatic nerve. Mechanical hyperalgesia is assessed from paw withdrawal thresholds measured on the ipsilateral (ligated) and contralateral (non-ligated) hindpaws using standard paw pressure methods. Drug effects are studied 11-15 days post ligation. The mean paw withdrawal threshold±s.e.m. for the left (ligated) paw is compared to that of the right (non-ligated) paw.
The agents of invention are administered, e.g. orally in 20% cremophor/water in a volume of 1 ml. The post-drug percentage hyperalgesia values are obtained by comparison to the pre-drug value for the right (non-ligated) paw; this enables a true measure of the reduction in hyperalgesia to be obtained without the added complication of any drug effects on the right paw. […] The agents of invention produce a reversal of mechanical hyperalgesia at 0.1-100 mg/kg and show a rapid onset of activity with a long duration of action.

[2] = target: T1, human vanilloid receptor 1 (hVR1) ion channels (Homo sapiens, UniProt Q8NER1); assay: Fluorescence assay (calcium-sensitive dye) in CHO cells expressing human vanilloid receptor 1 ion channels, stimulated by capsaicin or low pH; format: cell-based; settings: in vitro, VR1 ion channel block
T1 construct: expressed in transfected cells; host or cells: CHO cells
T1 sequence (Q8NER1 whole entry): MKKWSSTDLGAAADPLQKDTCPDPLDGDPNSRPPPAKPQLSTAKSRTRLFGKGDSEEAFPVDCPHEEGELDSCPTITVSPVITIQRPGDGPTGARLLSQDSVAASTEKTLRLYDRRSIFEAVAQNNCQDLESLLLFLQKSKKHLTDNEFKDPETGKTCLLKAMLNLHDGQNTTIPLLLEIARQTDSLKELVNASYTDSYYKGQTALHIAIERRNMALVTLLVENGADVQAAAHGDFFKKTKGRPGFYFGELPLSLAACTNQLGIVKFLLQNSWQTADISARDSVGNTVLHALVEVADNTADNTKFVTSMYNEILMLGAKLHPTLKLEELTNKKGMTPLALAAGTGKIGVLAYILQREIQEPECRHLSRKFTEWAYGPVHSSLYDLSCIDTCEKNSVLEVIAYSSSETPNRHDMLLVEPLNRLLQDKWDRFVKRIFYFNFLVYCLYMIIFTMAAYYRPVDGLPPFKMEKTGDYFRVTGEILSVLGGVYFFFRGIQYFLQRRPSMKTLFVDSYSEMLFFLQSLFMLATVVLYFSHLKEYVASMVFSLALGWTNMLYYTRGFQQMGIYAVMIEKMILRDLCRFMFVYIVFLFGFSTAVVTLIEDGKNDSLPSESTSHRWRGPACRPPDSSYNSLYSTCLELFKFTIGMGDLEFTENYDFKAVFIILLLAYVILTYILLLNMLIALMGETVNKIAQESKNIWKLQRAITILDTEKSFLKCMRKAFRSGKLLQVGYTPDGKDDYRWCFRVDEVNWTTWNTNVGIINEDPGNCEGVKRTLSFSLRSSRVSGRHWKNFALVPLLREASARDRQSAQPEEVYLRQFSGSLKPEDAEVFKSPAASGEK
Experimental: Fluorescence assay: Cultures of Chinese Hamster Ovary (CHO) cells expressing human vanilloid receptor 1 ion channels are prepared according to standard protocols [McIntyre et al., British Journal of Pharmacology 132: 1084-1094 (2001)]. The activity of test compounds are investigated using a fluorescence assay utilising calcium sensitive dyes to measure changes in [Ca^2+]i. The cells are plated at a density of 25,000 per well on 96 well Costar black, clear bottomed plates cultured at 37° C. in 5% CO2 in MEM medium overnight. On the day of the assay, cells are incubated in either 2 μM fura-2/AM or 2 μM fura-6F (Molecular Probes) made up in assay buffer [Hank's Balanced Salt Solution (HBSS, Invitrogen) containing 10 mM N-2-(hydroxyethylpiperazine-N′-[2-ethanesulfonic acid) (HEPES), pH 7.4] containing 0.01% pluronic F-127 for 30 min at room temperature. […] The fluorescence is measured over 1 min at 4 s intervals using excitation wavelengths of 340 and 380 nm and emission of 520 nm. […] The ratio of fluorescence intensities following excitation at 340 and 380 nm is calculated for each time point. The agonist-evoked response is calculated as the mean of the ratios in the four time-points following stimulation minus the basal ratio.

rat VR1 = rat VR1 (Rattus norvegicus, UniProt O35433); assay: Fluorescence assay, rat VR1; format: cell-based; settings: in vitro, VR1 ion channel block
rat VR1, sequence (O35433 whole entry): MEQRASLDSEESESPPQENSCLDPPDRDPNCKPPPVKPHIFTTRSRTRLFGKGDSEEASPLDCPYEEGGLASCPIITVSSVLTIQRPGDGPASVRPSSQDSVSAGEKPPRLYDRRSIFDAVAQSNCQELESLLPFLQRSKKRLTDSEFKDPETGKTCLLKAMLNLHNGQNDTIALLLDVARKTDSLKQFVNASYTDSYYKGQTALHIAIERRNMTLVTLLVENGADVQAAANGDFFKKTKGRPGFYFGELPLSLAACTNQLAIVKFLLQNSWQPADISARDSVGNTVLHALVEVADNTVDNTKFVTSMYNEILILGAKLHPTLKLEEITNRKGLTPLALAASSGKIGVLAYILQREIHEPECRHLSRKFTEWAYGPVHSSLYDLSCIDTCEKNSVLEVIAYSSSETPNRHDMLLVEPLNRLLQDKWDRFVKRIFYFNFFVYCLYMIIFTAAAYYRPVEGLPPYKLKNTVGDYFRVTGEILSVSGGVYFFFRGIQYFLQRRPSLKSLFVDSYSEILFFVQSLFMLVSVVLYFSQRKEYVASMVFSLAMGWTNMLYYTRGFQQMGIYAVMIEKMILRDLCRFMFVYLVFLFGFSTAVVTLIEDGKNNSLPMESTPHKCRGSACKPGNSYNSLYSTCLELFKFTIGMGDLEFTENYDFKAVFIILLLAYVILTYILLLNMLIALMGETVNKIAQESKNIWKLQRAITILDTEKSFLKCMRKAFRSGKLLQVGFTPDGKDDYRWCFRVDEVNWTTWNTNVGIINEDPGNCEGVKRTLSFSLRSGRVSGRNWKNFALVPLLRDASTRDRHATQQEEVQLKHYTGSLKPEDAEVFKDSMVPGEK

pIC50 [2]: 7.19
pIC50 (rat VR1): 7.72
SMILES: CC(C)(C)c1nc2[nH]c(=S)[nH]c(=O)c2cc1-c1ccc(Cl)cc1 [Example 2, 7-.tert.-butyl-6-(4-chlorophenyl)-2-thioxo-2,3-dihydro-1.H.-pyrido[2,3-.d.]pyrimidin-4-one]
duration of effect on paw withdrawal thresholds [1]: at least 6 h
effect on paw withdrawal thresholds [1]: dose-dependently reduces paw withdrawal thresholds
